For one experiment, the target named is T1, AlkS (Ectopseudomonas oleovorans, UniProt P17051).
T1 construct: expressed in transfected cells; host or cells: CHO-K1
Description: AlkS-based regulatable SEAP expression in CHO-K1 cells. The experiment is classed as cell-based, Pseudomonas putida (oleovorans). The note with it: CHO-K1 cells transfected with AlkS and PSV40 promoter with 8 OP repeats; upon addition of regulating compound. From the text: A regulatable expression system responsive to liquid or gaseous inducers based on bacterial elements is constructed by PCR-cloning the Pseudomonas putida (oleovorans)-derived RTF AlkS (Smiths et al., 2001. Plasmid 46, 16-24) into the mammalian expression vector pEF6V5-His TOPO (Invitrogen, Carlsbad, Calif.). The responsive promoter is constructed by cloning 8 repeats of the AlkS-specific OP site downstream of the simian virus 40 promoter PSV40 followed by a reporter gene, the secreted alkaline phosphatase SEAP.
Transfection of the plasmids encoding AlkS and the responsive promoter controlling SEAP expression in CHO-K1 cells results in SEAP expression levels typical for PSV40-driven constitutive expression.

The next experiment deals with T2, AlcR (Emericella nidulans, UniProt P21228).
T2 construct: excising alcR (EcoRI/SalI) from an alcR cDNA containing vector; expressed in transfected cells; host or cells: CHO-K1
Put plainly: Gas-phase controlled SEAP expression of stable CHO-K1-derived cell line in a bioreactor. The experiment is classed as cell-based, Aspergillus nidulans. The note with it: 2.5 L bioreactor, gassing in air containing 340 ppm acetaldehyde, then 40 ppm; shut down by sparging with pure air. From the text: A stable CHO-K1-derivative engineered for acetaldehyde-inducible SEAP expression is cultivated in a bioreactor. […] The specific SEAP productivities (μU/10^6 cells/h) are indicated over time (h).
A CHO-K1-derived cell line is constructed for gas-inducible expression of a secreted alkaline phosphatase (SEAP) by stable transfection/transduction with plasmid pWW192 (see Example 1) and a pWW506-based viral particle (see Example 4).

Each structure is given as a SMILES string.

T1 sequence (P17051 whole entry): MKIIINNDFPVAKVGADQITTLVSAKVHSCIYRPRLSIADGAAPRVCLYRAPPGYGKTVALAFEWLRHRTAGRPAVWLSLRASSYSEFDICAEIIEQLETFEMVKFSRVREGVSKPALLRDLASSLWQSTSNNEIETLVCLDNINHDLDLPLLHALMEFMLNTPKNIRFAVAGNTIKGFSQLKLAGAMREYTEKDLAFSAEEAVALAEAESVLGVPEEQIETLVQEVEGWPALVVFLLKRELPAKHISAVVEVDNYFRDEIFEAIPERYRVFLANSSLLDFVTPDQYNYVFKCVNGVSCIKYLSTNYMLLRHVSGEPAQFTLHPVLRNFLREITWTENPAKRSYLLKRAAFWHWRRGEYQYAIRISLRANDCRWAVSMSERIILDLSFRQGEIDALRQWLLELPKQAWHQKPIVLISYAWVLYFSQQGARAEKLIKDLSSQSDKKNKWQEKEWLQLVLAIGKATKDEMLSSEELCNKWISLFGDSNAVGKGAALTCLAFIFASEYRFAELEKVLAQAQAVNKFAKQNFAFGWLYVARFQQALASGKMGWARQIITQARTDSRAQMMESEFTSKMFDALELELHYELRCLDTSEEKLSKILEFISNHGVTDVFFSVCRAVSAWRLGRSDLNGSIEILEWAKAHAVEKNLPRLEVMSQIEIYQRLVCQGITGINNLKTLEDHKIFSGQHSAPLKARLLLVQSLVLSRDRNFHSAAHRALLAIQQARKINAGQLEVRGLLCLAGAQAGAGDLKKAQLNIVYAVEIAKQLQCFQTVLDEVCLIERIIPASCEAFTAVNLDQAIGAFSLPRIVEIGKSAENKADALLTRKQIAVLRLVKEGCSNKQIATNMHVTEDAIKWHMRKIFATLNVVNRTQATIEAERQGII
T2 sequence (P21228 whole entry): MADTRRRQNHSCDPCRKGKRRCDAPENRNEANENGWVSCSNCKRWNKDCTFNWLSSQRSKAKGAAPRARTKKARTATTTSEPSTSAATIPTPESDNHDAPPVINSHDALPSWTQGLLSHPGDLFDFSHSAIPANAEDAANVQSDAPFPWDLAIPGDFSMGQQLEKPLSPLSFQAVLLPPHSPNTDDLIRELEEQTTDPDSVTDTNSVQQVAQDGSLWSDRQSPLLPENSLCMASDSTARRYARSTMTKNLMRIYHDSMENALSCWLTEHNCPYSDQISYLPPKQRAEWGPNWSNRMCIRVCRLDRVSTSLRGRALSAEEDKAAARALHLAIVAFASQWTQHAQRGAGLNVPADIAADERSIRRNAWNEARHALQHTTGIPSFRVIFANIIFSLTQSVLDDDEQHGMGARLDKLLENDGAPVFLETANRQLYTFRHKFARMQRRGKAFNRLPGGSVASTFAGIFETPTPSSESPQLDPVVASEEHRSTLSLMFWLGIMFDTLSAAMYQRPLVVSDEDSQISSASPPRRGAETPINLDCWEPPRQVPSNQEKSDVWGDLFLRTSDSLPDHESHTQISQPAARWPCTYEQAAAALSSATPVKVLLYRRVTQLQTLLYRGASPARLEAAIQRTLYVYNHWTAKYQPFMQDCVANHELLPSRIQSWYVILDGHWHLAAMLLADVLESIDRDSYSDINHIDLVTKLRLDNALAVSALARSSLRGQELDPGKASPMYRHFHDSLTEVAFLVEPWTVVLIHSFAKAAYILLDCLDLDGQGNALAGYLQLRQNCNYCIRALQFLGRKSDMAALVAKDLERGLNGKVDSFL

With `CCOCC` [ethyl ether], the SEAP expression entry on AlkS is on record as “decreases in a dose-dependent manner”.

As to `O=C(C1CC1)C1CC1` [dicyclopropylketone], on AlkS, the SEAP expression result is on record as “decreases in a dose-dependent manner”.

In the case of `CCOC(C)=O` [ethyl acetate], the SEAP expression result at AlkS is recorded as “decreases in a dose-dependent manner”.

As to `CC=O` [acetaldehyde], the SEAP expression entry on AlcR is on record as “induced”.

(Values after US20060183189A1, “Regulatable gene expression in mammalian cells and mammals” (priority 2003, published 2006).)
